Assays:
full-length HAQ STING = target: T1, full-length HAQ STING (Homo sapiens, UniProt Q86WV6, G230A/H232R/R293Q/R71H); assay: 3H-cGAMP filtration binding assay (HAQ STING); settings: competition with tritiated cGAMP, HAQ STING membrane
T1 construct: AviTag (after GG linker) (C); HRV3C cleavage site (after GS linker) (C); HIS8 (C); made in house; host or cells: Trichoplusia ni (Hi-Five) insect cells infected with baculovirus (virus generated and amplified in Sf21 cells); used as a washed membrane preparation
In short: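 Hi-Five (T. ni) membranes overexpressing the STING variant (2.2 ug/ml working) preincubated with compound 60 min at RT in PBS, then [3H]cGAMP (8 nM working stock) added for 60 min at RT. Bound radioactivity captured on GF/B filters and counted by scintillation; EC50 from 4-parameter fit of control-normalized activity.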

full-length WT STING = target: T2, full-length WT STING (Homo sapiens, UniProt Q86WV6, H232R); assay: 3H-cGAMP filtration binding assay (WT STING); settings: for EC50: competition with tritiated cGAMP, WT STING membrane
T2 construct: AviTag (after gg linker) (C); HRV3C cleavage site (after gs linker) (C); HIS8 (C); made in house; host or cells: Trichoplusia ni (Hi-Five) insect cells infected with baculovirus (virus generated and amplified in Sf21 cells); used as a washed membrane preparation
In short: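 Competitive filtration binding of [3H]cGAMP (16 nM working stock) to T. ni membranes overexpressing full-length WT human STING, 60 min at RT in PBS. Bound radioactivity counted after GF/B filtration; 10-point 1:3 titration, EC50 from 4-parameter fit after control normalisation.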

[1] = tested on: secretion of interferon-beta from THP1 cells; assay: IFN-β secretion in THP1 cell culture (5 h); assay type: cell-based; settings: Homo sapiens, THP-1, 5 h, 30 uM cGAMP = 100%; for activation at 30 µM: compound at 30 μM, read-out: % Effect at 30 μM relative to 2′3′-cGAMP; for activation at 3 µM: compound at 3 uM, read-out: % Effect relative to 2′3′-cGAMP (@ 3 uM)
In short: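 Thawed THP1 cells (0.8×10^6/mL, RPMI with 0.5% FBS) exposed to compounds 1.5–30000 nM (0.3% DMSO) for 5 h at 37 °C. Supernatant IFN-β quantified by AlphaLISA. Percent effect normalised to 30 uM cGAMP and DMSO controls; EC50 from 4-parameter fit.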

T1 sequence (Q86WV6 with tags, fused parts or gaps R71H/G230A/H232R/R293Q): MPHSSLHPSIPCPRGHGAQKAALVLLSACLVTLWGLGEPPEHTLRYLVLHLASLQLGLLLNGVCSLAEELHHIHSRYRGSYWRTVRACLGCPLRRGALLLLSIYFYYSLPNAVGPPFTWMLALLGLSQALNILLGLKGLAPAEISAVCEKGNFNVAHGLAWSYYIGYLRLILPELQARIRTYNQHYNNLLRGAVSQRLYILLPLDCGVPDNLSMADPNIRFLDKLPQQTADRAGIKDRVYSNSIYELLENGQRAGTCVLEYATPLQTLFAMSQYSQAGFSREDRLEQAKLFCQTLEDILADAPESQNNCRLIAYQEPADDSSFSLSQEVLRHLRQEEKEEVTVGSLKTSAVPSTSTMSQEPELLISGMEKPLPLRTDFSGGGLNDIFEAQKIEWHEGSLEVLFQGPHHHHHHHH
T2 sequence (Q86WV6 with tags, fused parts or gaps H232R): as the sequence (Q86WV6 with tags, fused parts or gaps R71H/G230A/H232R/R293Q) above, with H71R, A230G, Q293R counted along it

Compound | EC50 (full-length HAQ STING) [nM] | EC50 (full-length WT STING) [nM] | activation at 30 µM [1] [%] | activation at 3 µM [1] [%] | inhibition at 2 µM (full-length WT STING; at 2,000 nM compound) [%] | inhibition at 20 µM (full-length WT STING; at 20,000 nM compound) [%]
COc1cc2sc(C(=O)C[C@H](C)C(=O)O)cc2nc1OCCCOc1c(OC)cc2sc(C(=O)CC(C)(C)C(=O)O)cc2c1F [Example 59, (S)-4-(5-(3-((2-(3-carboxybutanoyl)-6-methoxythieno[3,2-b]pyridin-5-yl)oxy)propoxy)-4-fluoro-6-methoxybenzo[b]thiophen-2-yl)-2,2-dimethyl-4-oxobutanoic acid] | 1 | 2 | 18 | – | – | –
COc1cc2sc(C(=O)CCC(=O)O)cc2cc1OCCCc1c(OC)cc2sc(C(=O)C[C@H](C)C(=O)O)cc2c1F [Example 161, (S)-4-(5-(3-((2-(3-carboxypropanoyl)-6-methoxybenzo[b]thiophen-5-yl)oxy)propyl)-4-fluoro-6-methoxybenzo[b]thiophen-2-yl)-2-methyl-4-oxobutanoic acid] | 1 | 4 | 106 | – | – | –
COc1cc2sc(C(=O)CCC(=O)O)cc2cc1OCCCOc1nc2cc(C(=O)C[C@H](C)C(=O)O)sc2cc1OC [Example 18, (S)-4-(5-(3-((2-(3-carboxypropanoyl)-6-methoxybenzo [b]thiophen-5-yl)oxy)propoxy)-6-methoxythieno [3,2-b]pyridin-2-yl)-2-methyl-4-oxobutanoic acid] | 2 | 8 | 62 | – | – | –
COc1cc2sc(C(=O)CCC(=O)O)cc2c(F)c1OCCCCCOc1c(OC)cc2sc(C(=O)C[C@H](C)C(=O)O)cc2c1F [Example 118] | 60 | 5000 | 117 | – | – | –
COc1cc2cc(C(=O)CCC(=O)O)sc2cc1OCCCc1cc2cc(C(=O)CCC(=O)O)sc2cc1C [Example 129, 4-(5-(3-((2-(3-carboxypropanoyl)-5-methoxybenzo[b]thiophen-6-yl)oxy)propyl)-6-methylbenzo[b]thiophen-2-yl)-4-oxobutanoic acid] | 3500 | 17100 | 50 | – | – | –
COc1cc2sc(C(=O)C[C@H](C)C(=O)O)cc2cc1CCOc1cc2cc(C(=O)C[C@H](C)C(=O)O)sc2cc1OC [Example 42, (S)-4-(5-(2-(2-((S)-3-carboxybutanoyl)-6-methoxybenzo[b]thiophen-5-yl)ethoxy)-6-methoxybenzo[b]thiophen-2-yl)-2-methyl-4-oxobutanoic acid] | 6 | 12 | 67 | – | – | –
COc1cc2sc(C(=O)C[C@H](C)C(=O)O)cc2cc1OCCCOc1c(OC)cc2sc(CC[C@H](C)C(=O)O)cc2c1F [Example 169, (S)-4-(5-(3-((2-((S)-3-carboxybutyl)-4-fluoro-6-methoxybenzo[b]thiophen-5-yl)oxy)propoxy)-6-methoxybenzo[b]thiophen-2-yl)-2-methyl-4-oxobutanoic acid] | 1 | 18 | 64 | – | – | –
COc1cc2sc(C(=O)C[C@H](C)C(=O)O)cc2cc1OCC(C)COc1cc2cc(C(=O)C[C@H](C)C(=O)O)sc2cc1OC [Example 160, (2S,2′S)-4,4′-(((2-methylpropane-1,3-diyl)bis(oxy))bis(6-methoxybenzo[b]thiophene-5,2-diyl))bis(2-methyl-4-oxobutanoic acid)] | 1 | 6 | 18 | – | – | –
COc1cc2sc(C(=O)C[C@H](C)C(=O)O)cc2cc1OCCCOc1ccc2sc(C(=O)CCC(=O)O)cc2c1 [Example 55, (S)-4-(5-(3-((2-(3-carboxypropanoyl)benzo[b]thiophen-5-yl)oxy)propoxy)-6-methoxybenzo[b]thiophen-2-yl)-2-methyl-4-oxobutanoic acid] | 14 | 48 | 53 | – | – | –
COc1cc2sc(C(=O)C[C@H](C)C(=O)O)cc2cc1OCCCCOc1c(OC)cc2sc(C(=O)C[C@H](C)C(=O)O)cc2c1F [Example 93, (S)-4-(5-(4-((2-((S)-3-carboxybutanoyl)-4-fluoro-6-methoxybenzo[b]thiophen-5-yl)oxy)butoxy)-6-methoxybenzo[b]thiophen-2-yl)-2-methyl-4-oxobutanoic acid] | 1 | 3 | 87 | – | – | –
COc1cc2sc(CC[C@H](C)C(=O)O)cc2c(F)c1OCCCOc1c(OC)cc2sc(C(=O)C[C@H](C)C(=O)O)cc2c1Br [Example 148, (S)-4-(4-bromo-5-(3-((2-((S)-3-carboxybutyl)-4-fluoro-6-methoxybenzo[b]thiophen-5-yl)oxy)propoxy)-6-methoxybenzo[b]thiophen-2-yl)-2-methyl-4-oxobutanoic acid] | 395 | 411 | – | 41 | – | –
COc1cc2sc(CC[C@H](C)C(=O)O)cc2c(Cl)c1OCCOc1c(OC)cc2sc(C(=O)C[C@H](C)C(=O)O)cc2c1Cl [Example 154, (S)-4-(5-(2-((2-((S)-3-carboxybutyl)-4-chloro-6-methoxybenzo[b]thiophen-5-yl)oxy)ethoxy)-4-chloro-6-methoxybenzo[b]thiophen-2-yl)-2-methyl-4-oxobutanoic acid] | 694 | – | – | 76 | 30 | –
COc1cc2sc(C(=O)C[C@H](C)C(=O)O)cc2c(F)c1OCC(C)COc1c(OC)cc2sc(C(=O)C[C@H](C)C(=O)O)cc2c1F [Example 142, (2S,2′S)-4,4′-(((2-methylpropane-1,3-diyl)bis(oxy))bis(4-fluoro-6-methoxybenzo[b]thiophene-5,2-diyl))bis(2-methyl-4-oxobutanoic acid)] | 1 | 1 | 81 | – | – | –
COC(=O)[C@@H](C)CC(=O)c1cc2cc(OCCCOc3cc4sc(C(=O)C[C@H](C)C(=O)OC)cc4cc3OC)c(OC)cc2s1 [Example 48, methyl (S)-4-(6-methoxy-5-(3-((5-methoxy-2-((S)-4-methoxy-3-methyl-4-oxobutanoyl)benzo[b]thiophen-6-yl)oxy)propoxy)benzo[b]thiophen-2-yl)-2-methyl-4-oxobutanoate] | 12800 | – | 22 | – | – | 43
COc1cc2sc(CC[C@H](C)C(=O)O)cc2c(F)c1OCCCOc1c(O)cc2sc(C(=O)C[C@H](C)C(=O)O)cc2c1Cl [Example 186, (S)-4-(5-(3-((2-((S)-3-carboxybutyl)-4-fluoro-6-methoxybenzo[b]thiophen-5-yl)oxy)propoxy)-4-chloro-6-hydroxybenzo[b]thiophen-2-yl)-2-methyl-4-oxobutanoic acid] | 133 | 756 | – | 56 | – | –
COc1cc2sc(C(=O)CCC(=O)O)cc2cc1CCCOc1c(OC)cc2sc(C(=O)C[C@H](C)C(=O)O)cc2c1F [Example 33, (S)-4-(5-(3-(2-(3-carboxypropanoyl)-6-methoxybenzo [b]thiophen-5-yl)propoxy)-4-fluoro-6-methoxybenzo[b]thiophen-2-yl)-2-methyl-4-oxobutanoic acid] | 1 | 4 | 104 | – | – | –
COc1cc2sc(C(=O)C[C@H](C)C(=O)O)cc2cc1CCCc1cc2cc(C(=O)C[C@H](C)C(=O)O)sc2cc1OC [Example 2, (2S,2′S)-4,4′-[propane-1,3-diylbis(6-methoxy-1-benzothiene-5,2-diyl)]bis(2-methyl-4-oxobutanoic acid)] | 7 | 14 | 192 | – | – | –
COc1cc2sc(C(=O)CCC(=O)O)cc2cc1CCCOc1cc2sc(C(=O)CCC(=O)O)cc2cc1OC [Example 128, 4-(5-(3-((2-(3-carboxypropanoyl)-5-methoxybenzo[b]thiophen-6-yl)oxy)propyl)-6-methoxybenzo[b]thiophen-2-yl)-4-oxobutanoic acid] | 1080 | 6310 | 83 | – | – | –
COc1cc2cc(C(=O)C[C@H](C)C(=O)O)sc2cc1OCCCCOc1cc2sc(C(=O)C[C@H](C)C(=O)O)cc2cc1OC [Example 95, (2S,2′S)-4,4′-(6,6′-(butane-1.4-diylbis(oxy))bis(5-methoxybenzo[b]thiophene-6,2-diyl))bis(2-methyl-4-oxobutanoic acid)] | 237 | 813 | 72 | – | – | –
COc1cc2sc(C(=O)C[C@H](C)C(=O)O)cc2cc1OCCCOc1cc2cc(C(=O)[C@H]3C[C@@H]3C(=O)O)sc2cc1OC (racemic) [Example 68, rac-(1R,2R)-2-(5-(3-((2-((R)-3-carboxybutanoyl)-6-methoxybenzo[b]thiophen-5-yl)oxy)propoxy)-6-methoxybenzo[b]thiophene-2-carbonyl)cyclopropane-1-carboxylic acid] | 50 | 443 | 24 | – | – | –

Source: patent US10793557B2, “Sting agonist compounds” (Merck Sharp & Dohme Corp., priority 2018, dated 2020)
